Laboratory results published in article PMC10578352, “Identification of a Protein Arginine Methyltransferase 7 (PRMT7)/Protein Arginine Methyltransferase 9 (PRMT9) Inhibitor” (Journal of Medicinal Chemistry, 2023).
Entries after “also recorded” stand apart in the source; their conditions may differ.

Test system: SET-domain-containing enzymes
Test: Selectivity against the panel of SET-domain-containing KMTs
Type: biochemical, human
Conditions: highest tested concentration 100 μM
Description: . […] After incubation for 60 min at 30 °C, the reaction mixture was delivered to filter paper for detection (as assessed by scintillation). […] Data were analyzed using Excel and GraphPad Prism 6.0 software (GraphPad Software Inc., San Diego, CA). Values obtained for each compound are mean ± SD determined for two separate experiments.

SMILES: COC(=O)c1cc(O)c2cc(NC(=O)NCCCNC(=N)NC[C@H]3O[C@@H](n4cnc5c(N)ncnc54)[C@H](O)[C@@H]3O)cc(C(F)(F)F)c2c1 [1j, Methyl 6-(3-(3-(3-(((2R,3S,4R,5R)-5-(6-Amino-9H-purin-9-yl)-3,4-dihydroxytetrahydrofuran-2-yl)methyl)guanidino)propyl)ureido)-4-hydroxy-8-(trifluoromethyl)-2-naphthoate]
- inhibition of SET-domain-containing enzymes (in words): none of the SET-domain-containing enzymes was inhibited; also recorded: not inhibited
